Laboratory results: patent US20200031873A1, “REPURPOSING CELL PENETRATING PEPTIDES AND THEIR NOVEL DERIVATIVES AND IOPROMIDE AND IODO-ARYL CARBONATES FOR TREATMENT OF SENESCENCE-RELATED DISEASES AND DISORDERS” (Eternans Limited, priority 2018, published 2020)
“Also recorded” adds a separate entry of the source. Where a SMILES comes first, the peptide text is derived from it.

How the values were obtained:
BALB/c mice = experiment: Acute Sytemic Toxicity Test (ISO 10993-11); type: in vivo; design: hematological parameters, AST, ALT, ALP levels and gross pathology: dose or concentration left out as unconfirmed
Protocol: Senolytic Peptides were evaluated for toxicity according to Acute Sytemic Toxicity Test (ISO 10993-11). This study was performed in strict accordance with the protocol approved by the TUBITAK-MAM Animal Ethics Committee. All the mice used in this study were of a BALB/c background at 8-12 weeks of age. All mice were kept in group housing until the start of the experiment after which they were placed in separate cages (5 mice per cage). […] Control and Senolytic Peptide (SEQ ID NO: 2) injected mice were sacrificed 24 hours later for pathological examination. […] Blood samples were subsequently collected for determination and analysis of hematological and biochemical parameters. Plasma alanine aminotransferase (ALT), aspartate aminotransferase (AST), alkaline phosphatase (ALP) activities and blood urea, glucose, triglyceride levels were determined, inter alia, full hematological parameters.

[1] = test system: senescent and non-senescent WI-38 fibroblasts; type: cell-based, human; details: total doses 0 to 100 μM on 3 consecutive days, read after 7 days, listed as SEQ ID NO: 11
Protocol: WI-38 cells (ATCC # CCL-75, a diploid primary human fibroblast adherent cell line derived from fetal lung tissue) were treated with a chemotherapy agent, 100 nM Doxorubicin twice every other day to induce senescence. […] Later these cells were used for experiments comparing them to their non-Doxorubicin (non-senescent) treated counterparts. Senescent and non-senescent WI-38 fibroblasts were plated for XTT viability assays. 7000 senescent (obtained as described above) and 2000 non-senescent WI-38 fibroblasts were plated in 96-well plates incubated. The cells were treated with mock (PBS) or the Senolytic Peptide (SEQ ID NO: 11) at total doses ranging from 0 to 100 μM. The mock and peptide treatments were carried out for 3 consecutive days (24, 48 and 72 hours) after plating. After treatment period, the cells were incubated for 7 days until XTT-based viability was analyzed according to the manufacturer's instructions. […] The Senolytic Peptide (SEQ ID NO: 2) was ordered from Chinese Peptide Company with TFA removal.

Compound | toxicity to the physical appearance of the mice (BALB/c mice; intravenous single injection, 1, 10, 50 and 100 mg/kg, within 24 hours) | hematological parameters, AST, ALT, ALP levels and gross pathology (BALB/c mice; intravenous single injection, 24 hours, even at higher doses) | viability of senescent vs non-senescent cells (XTT) [1]
N=C(N)NCCC[C@H](NC(=O)[C@H](CCCNC(=N)N)NC(=O)[C@H](CCCNC(=N)N)NC(=O)[C@H](CCC(N)=O)NC(=O)[C@H](CCCNC(=N)N)NC(=O)[C@H](CCCNC(=N)N)NC(=O)[C@H](CCCCN)NC(=O)[C@H](CCCCN)NC(=O)[C@H](CCCNC(=N)N)NC(=O)CNC(=O)[C@H](Cc1ccc(O)cc1)NC(=O)[C@H](CCCNC(=N)N)NC(=O)[C@H](CCCNC(=N)N)NC(=O)[C@H](CCCNC(=N)N)NC(=O)[C@H](CCC(N)=O)NC(=O)[C@H](CCCNC(=N)N)NC(=O)[C@H](CCCNC(=N)N)NC(=O)[C@H](CCCCN)NC(=O)[C@H](CCCCN)NC(=O)[C@H](CCCNC(=N)N)NC(=O)CNC(=O)[C@H](Cc1ccc(O)cc1)NC(=O)[C@H](CCCNC(=N)N)NC(=O)[C@H](CCCNC(=N)N)NC(=O)[C@H](CCCNC(=N)N)NC(=O)[C@H](CCC(N)=O)NC(=O)[C@H](CCCNC(=N)N)NC(=O)[C@H](CCCNC(=N)N)NC(=O)[C@H](CCCCN)NC(=O)[C@H](CCCCN)NC(=O)[C@H](CCCNC(=N)N)NC(=O)CNC(=O)[C@@H](N)Cc1ccc(O)cc1)C(=O)O [ID 2] (H-YGRKKRRQRRRYGRKKRRQRRRYGRKKRRQRRR-OH; N-terminus and C-terminus assumed) | No toxicity to the physical appearance of the mice was observed | no toxicity | 
TRQARRNRRRRWRERQR [ID 11] |  |  | selective decrease in the viability of senescent cells but not non-senescent cells; also recorded: selectively decreased the viability of senescent cells but not non-senescent cells
